Reference: patent US20180000085A1, “USE OF PICOLINAMIDE COMPOUNDS WITH FUNGICIDAL ACTIVITY” (DOW AGROSCIENCES LLC, priority 2014, published 2018)

Columns and labels:
Puccinia triticina = experiment: Wheat brown rust (PUCCRT) disease control on wheat seedlings; format: in vivo; set-up: key to PUCCRT 3DC, HV activity at 100 ppm (% control rating) / PUCCRT disease control, 3DC / PUCCRT 1DP disease control rating, HV activity / PUCCRT 3DC disease control rating, HV activity / PUCCRT 3DC, LV activity at 125.1 g/H (% Control rating) / PUCCRT 1DP, LV activity at 125.1 g/H (% Control rating) / PUCCRT 3DC disease control rating, LV activity at 125.1 g/H / PUCCRT 1DP disease control rating, LV activity at 125.1 g/H / PUCCRT 3DC disease control rating, HV activity at 100 ppm / PUCCRT 1DP disease control rating, HV activity at 100 ppm / HV activity at 100 ppm PUCCRT 3DC (disease control rating) / LV activity at 125.1 g/H PUCCRT 1DP (disease control rating) / LV activity at 125.1 g/H PUCCRT 3DC (disease control rating): A: > 80; B: ≤ 80; C: Not Tested; D: No Activity Observed in the Reported Assay; conditions: 100 ppm; for PUCCRT 1DP disease control rating, HV activity at 100 ppm / PUCCRT 3DC disease control rating, HV activity at 100 ppm: high volume application; for PUCCRT 1DP disease control rating, HV activity at 100 ppm: 1 day protectant; for PUCCRT 3DC disease control rating, HV activity at 100 ppm: 3 day curative; for HV activity at 100 ppm PUCCRT 1DP (disease control rating) / HV activity at 100 ppm PUCCRT 3DC (disease control rating): HV application, wheat brown rust; for HV activity at 100 ppm PUCCRT 1DP (disease control rating): 1 Day Protectant; for HV activity at 100 ppm PUCCRT 3DC (disease control rating): 3 Day Curative
Zymoseptoria tritici = experiment: Leaf blotch of wheat (SEPTTR) disease control on wheat seedlings; format: in vivo; set-up: key to SEPTTR 1DP, HV activity at 100 ppm (% control rating) / SEPTTR 3DC, HV activity at 100 ppm (% control rating) / SEPTTR disease control, 1DP / SEPTTR disease control, 3DC / SEPTTR 1DP disease control rating, HV activity / SEPTTR 3DC disease control rating, HV activity / SEPTTR 3DC, LV activity at 125.1 g/H (% Control rating) / SEPTTR 1DP, LV activity at 125.1 g/H (% Control rating) / SEPTTR 1DP disease control rating, LV activity at 125.1 g/H / SEPTTR 3DC disease control rating, LV activity at 125.1 g/H / SEPTTR 3DC disease control rating, HV activity at 100 ppm / SEPTTR 1DP disease control rating, HV activity at 100 ppm / HV activity at 100 ppm SEPTTR 3DC (disease control rating) / HV activity at 100 ppm SEPTTR 1DP (disease control rating) / LV activity at 125.1 g/H SEPTTR 1DP (disease control rating) / LV activity at 125.1 g/H SEPTTR 3DC (disease control rating): A: > 80; B: ≤ 80; C: Not Tested; D: No Activity Observed in the Reported Assay; conditions: 100 ppm; for SEPTTR 1DP disease control rating, HV activity at 100 ppm / SEPTTR 3DC disease control rating, HV activity at 100 ppm: high volume application; for SEPTTR 1DP disease control rating, HV activity at 100 ppm: 1 day protectant; for SEPTTR 3DC disease control rating, HV activity at 100 ppm: 3 day curative; for HV activity at 100 ppm SEPTTR 1DP (disease control rating) / HV activity at 100 ppm SEPTTR 3DC (disease control rating): HV application, wheat leaf blotch; for HV activity at 100 ppm SEPTTR 1DP (disease control rating): 1 Day Protectant; for HV activity at 100 ppm SEPTTR 3DC (disease control rating): 3 Day Curative

Row | Structure (SMILES) | PUCCRT 1DP disease control rating, HV activity at 100 ppm (Puccinia triticina) | PUCCRT 3DC disease control rating, HV activity at 100 ppm (Puccinia triticina) | SEPTTR 1DP disease control rating, HV activity at 100 ppm (Zymoseptoria tritici) | SEPTTR 3DC disease control rating, HV activity at 100 ppm (Zymoseptoria tritici) | HV activity at 100 ppm PUCCRT 1DP (disease control rating) (Puccinia triticina) | HV activity at 100 ppm PUCCRT 3DC (disease control rating) (Puccinia triticina) | HV activity at 100 ppm SEPTTR 1DP (disease control rating) (Zymoseptoria tritici) | HV activity at 100 ppm SEPTTR 3DC (disease control rating) (Zymoseptoria tritici)
1 | COc1ccnc(C(=O)N[C@@H](C)C(=O)O[C@@H](C)[C@H](Oc2cccc(Cl)c2)C2CC2)c1O [Cmpd 1009] | A (> 80) | A (> 80) | A (> 80) | A (> 80) | – | – | – | –
2 | COc1ccnc(C(=O)N[C@@H](C)C(=O)O[C@@H](C)[C@H](Oc2ccc(C)cc2)C2CC2)c1O [Cmpd 1010] | A (> 80) | A (> 80) | B (≤ 80) | B (≤ 80) | – | – | – | –
3 | CCC[C@@H](Oc1ccc(C)cc1)[C@H](C)OC(=O)[C@H](C)NC(=O)c1nccc(OC)c1O [Cmpd 1012] | A (> 80) | A (> 80) | B (≤ 80) | B (≤ 80) | – | – | – | –
4 | CCC[C@@H](Oc1cccc(OC)c1)[C@H](C)OC(=O)[C@H](C)NC(=O)c1nccc(OC)c1O [Cmpd 1013] | A (> 80) | A (> 80) | B (≤ 80) | B (≤ 80) | – | – | – | –
5 | COc1cccc(O[C@H](C2CC2)[C@H](C)OC(=O)[C@H](C)NC(=O)c2nccc(OC)c2O)c1 [Cmpd 1014] | A (> 80) | A (> 80) | B (≤ 80) | B (≤ 80) | – | – | – | –
6 | COc1cccc(O[C@@H]([C@H](C)OC(=O)[C@H](C)NC(=O)c2nccc(OC)c2O)C(C)(C)C)c1 [Cmpd 1015] | A (> 80) | A (> 80) | B (≤ 80) | B (≤ 80) | – | – | – | –
7 | COc1ccnc(C(=O)N[C@@H](C)C(=O)O[C@@H](C)[C@H](Oc2ccccc2)C2CC2)c1O [Cmpd 1016] | A (> 80) | A (> 80) | B (≤ 80) | B (≤ 80) | – | – | – | –
8 | C=CC[C@@H](OCC(=C)C)[C@H](C)OC(=O)[C@H](C)NC(=O)c1nccc(OC)c1O [Cmpd 1019] | A (> 80) | A (> 80) | B (≤ 80) | A (> 80) | – | – | – | –
9 | C=CC[C@@H](Oc1ccc(C(F)(F)F)cc1)[C@H](C)OC(=O)[C@H](C)NC(=O)c1nccc(OC)c1O [Cmpd 1020] | A (> 80) | A (> 80) | B (≤ 80) | B (≤ 80) | – | – | – | –
10 | C=CC[C@@H](Oc1cccc(Cl)c1)[C@H](C)OC(=O)[C@H](C)NC(=O)c1nccc(OC)c1O [Cmpd 1021] | A (> 80) | A (> 80) | A (> 80) | A (> 80) | – | – | – | –
11 | C=CC[C@@H](Oc1cc(F)cc(Cl)c1)[C@H](C)OC(=O)[C@H](C)NC(=O)c1nccc(OC)c1O [Cmpd 1022] | B (≤ 80) | A (> 80) | D | B (≤ 80) | – | – | – | –
12 | C=CC[C@@H](Oc1ccc(F)cc1F)[C@H](C)OC(=O)[C@H](C)NC(=O)c1nccc(OC)c1O [Cmpd 1023] | A (> 80) | A (> 80) | D | B (≤ 80) | – | – | – | –
13 | C=CC[C@@H](OCC1CC1)[C@H](C)OC(=O)[C@H](C)NC(=O)c1nccc(OC)c1O [Cmpd 1024] | B (≤ 80) | A (> 80) | D | B (≤ 80) | – | – | – | –
14 | CC(NC(=O)c1nccc(Br)c1O)C(=O)OC(C)C(Oc1ccccc1)C(C)C (stereo not shown) [Cmpd 1025] | A (> 80) | B (≤ 80) | D | B (≤ 80) | – | – | – | –
15 | COc1ccnc(C(=O)NC(C)C(=O)OC(C(C)C)C(Oc2ccccc2)C(C)C)c1O (stereo not shown) [Cmpd 1031] | – | – | – | – | B (≤ 80) | D | B (≤ 80) | D
16 | C=CC(OC(=O)C(C)NC(=O)c1nccc(OC)c1O)C(Oc1ccccc1)C(C)C (stereo not shown) [Cmpd 1033] | – | – | – | – | A (> 80) | A (> 80) | A (> 80) | B (≤ 80)
17 | CC(C)C[C@@H](Oc1cccc(F)c1)[C@H](C)OC(=O)[C@H](C)NC(=O)c1ncccc1O [Cmpd 1035] | – | – | – | – | A (> 80) | A (> 80) | B (≤ 80) | D
18 | CC(C)C[C@@H](Oc1cc(F)ccc1F)[C@H](C)OC(=O)[C@H](C)NC(=O)c1ncccc1O [Cmpd 1036] | – | – | – | – | A (> 80) | B (≤ 80) | B (≤ 80) | D
19 | CC(C)C[C@@H](Oc1cccc(Cl)c1)[C@H](C)OC(=O)[C@H](C)NC(=O)c1ncccc1O [Cmpd 1037] | – | – | – | – | A (> 80) | A (> 80) | A (> 80) | B (≤ 80)
20 | Cc1ccc(O[C@H](CC(C)C)[C@H](C)OC(=O)[C@H](C)NC(=O)c2ncccc2O)c(Cl)c1 [Cmpd 1038] | – | – | – | – | A (> 80) | B (≤ 80) | D | B (≤ 80)
21 | CCOc1ccnc(C(=O)N[C@@H](C)C(=O)O[C@@H](C)[C@@H](CC(C)C)Oc2cccc(F)c2)c1O [Cmpd 1039] | – | – | – | – | A (> 80) | A (> 80) | D | B (≤ 80)
22 | CCOc1ccnc(C(=O)N[C@@H](C)C(=O)O[C@@H](C)[C@@H](CC(C)C)Oc2cc(F)ccc2F)c1O [Cmpd 1040] | – | – | – | – | B (≤ 80) | A (> 80) | D | D
23 | COc1ccnc(C(=O)N[C@@H](C)C(=O)O[C@@H](C)[C@@H](CC(C)C)OCC(C)C)c1O [Cmpd 1044] | – | – | – | – | A (> 80) | A (> 80) | B (≤ 80) | A (> 80)
24 | COc1ccnc(C(=O)N[C@@H](C)C(=O)O[C@@H](C)[C@@H](CC(C)C)OCC2CC2)c1O [Cmpd 1045] | – | – | – | – | A (> 80) | A (> 80) | D | B (≤ 80)
25 | COc1ccnc(C(=O)N[C@@H](C)C(=O)O[C@@H](C)[C@@H](CC(C)C)Oc2ccc3ccccc3c2)c1O [Cmpd 1046] | – | – | – | – | A (> 80) | A (> 80) | D | D
